Results reported in patent US20070219115A1, “Pharmaceutical Uses of Bisphosphonates” (priority 2003, published 2007).

B1: TRAIL: TNF-related apoptosis inducing ligand, purchased from R&D systems (protein, UniProt P50591 1-281, looked up)
Tumor necrosis factor ligand …: MAMMEVQGGPSLGQTCVLIVIFTVLLQSLCVAVTYVYFTNELKQMQDKYSKSGIACFLKEDDSYWDPNDEESMNSPCWQVKWQLRQLVRKMILRTSEETISTVQEKQQNISPLVRERGPQRVAAHITGTRGRSNTLSSPNSKNEKALGRKINSWESSRSGHSFLSNLHLRNGELVIHEKGFYYIYSQTYFRFQEEIKENTKNDKQMVQYIYKYTSYPDPILLMKSARNSCWSKDAEYGLYSIYQGGIFELKENDRIFVSVTNEHLIDMDHEASFFGAFLVG

Legend:
[1] = system: MCF7 cells; experiment: Apoptosis of MCF7 cells treated with ZOL and/or PAC, evaluated by nuclear morphology; assay type: cell-based; settings: for apoptosis: Experiment 2: 2 nM PAC 4 hours day 1, 1 μM ZOL 1 hour day 2, combined or alone, drug free medium to 48 hours
Method: MCF7 cells are seeded and pre-incubated then treated with ZOL and/or PAC in the sequences given below. In the case of the PAC then ZOL sequence, in one of the experiments geranylglycerol (GGOH, 50 μM) is added and then removed with the ZOL. Apoptosis is determined by evaluation of nuclear morphology.
Group 1: 25 μM ZOL (for 1 hour on day 1) followed by 2 nM PAC (for 4 hours day 2)
Group 2: 2 nM PAC (for 4 hours on day 1) followed by 25 μm ZOL (for 1 hour on day 2)
Following the last drug exposure the cells in each group are incubated in drug free medium to 48 hours.
2 nM PAC (for 4 hours on day 1) followed by 1 μM ZOL (for 1 hour on day 2). Following the last drug exposure the cells are incubated in drug free medium to 48 hours.
2 nM PAC (for 4 hours on day 1) followed by 25 μM or 1 μM ZOL (for 1 hour on day 2), with or without geranylgeraniol (GGOH) 50 μM (added and removed simultaneously with the ZOL). Following the last drug exposure the cells are incubated in drug free medium to 48 hours.

[2] = system: MCF7Ca cells; experiment: Apoptosis/necrosis of MCF7Ca cells, nuclear morphology after Hoechst and propidium iodide staining; assay type: cell-based; settings: for apoptotic cell death, each drug individually: MCF7Ca treated with each drug individually
Method: (§1) Breast cancer cells MCF7Ca (gift from Dr Chen, NY, USA) are used. Letrozole and zoledronic acid are provided by Novartis AG, Basel, Switzerland.
Following the initial dose-response studies the sequential and combined treatments are carried out using 10 μM zoledronic acid and 100 nM letrozole for 24 hours each, followed by a drug-free incubation period up to 24 hours. In some additional studies 1 μM zoledronic acid is used for 1 hour only.
The levels of apoptotic/necrotic tumour cell death are determined by evaluation of nuclear morphology following staining of the cells using Hoechst and propidium iodide.
The levels of apoptosis and necrosis caused by increasing doses of zoledronic acid is determined by expressing the cells to zoledronic acid for 1 hour, followed by a 72 hour incubation in drug-free medium. [drawing]
The levels of apoptosis caused by increasing doses of letrozole is determined by exposing the cells to letrozole for 72 hours. [drawing]
Cells are treated with a combination of 100 nM letrozole and 10 μM zoledronic acid for 24 hours, and the levels of apoptotic cell death determined following an additional 48 hours incubation in drug-free medium. [drawing]
In this series of experiments the cells are exposed to 10 μM zoledronic acid for 24 hours, washed and subsequently treated with 100 nM letrozole for 24 hours. The levels of apoptotic cell death are determined following a further 24 hours incubation in drug-free medium. [drawing]
(GGOH is an intermediary of the mevalonate pathway and is commonly used to reverse the effects of zoledronic acid inhibition of this pathway). In this set of experiments cells are treated with 100 nM letrozole for 24 hours followed by 1 hour treatment with 10 μM zoledronic acid+50 μM GGOH. The level of apoptosis is determined at 72 hours.
These experiments are performed in order to determine if the effects of zoledronic acid and letrozole are affected by starving the cells by treating them under serum-free conditions. [drawing]

[3] = following infusion of ZOL in vivo, for a few hours; cited from earlier work
[4] = system: MCF7Ca cells; experiment: MCF7Ca cell growth, cells counted with coulter counter; assay type: cell-based
Method: as §1
MCF7Ca cells are exposed to increasing doses of zoledronic acid for 1 hour, the drug removed and the cells incubated in drug-free medium up to 72 hours. The number of cells are counted using a coulter counter. [drawing]
MCF7Ca cells are exposed to increasing doses of letrozole for 24, 48 and 72 hours. For the 24 and 48 hour time points the drug is removed and the cells incubated in drug-free medium up to 72 hours. The number of cells are counted using a coulter counter. [drawing]

[5] = system: breast cancer lines MDA-MB-426 and MCF7; experiment: Apoptosis of breast cancer cells treated with ZOL and TRAIL; assay type: cell-based; settings: single agents as controls
Method: The breast cancer lines MDA-MB-426 and MCF7 and the prostate cancer cell line PC3 are treated with ZOL (25 μM and TRAIL (purchased from R&D systems, Abingdon, UK; 10 ng/ml) for varying incubation periods and sequences as follows:
Group 1: TRAIL given first for 24 hours followed by ZOL for 48 hours. […]
Group 3: ZOL and TRAIL given simultaneously for 24 hours.
Group 4: TRAIL given first for 24 hours then ZOL for 4 hours followed by drug-free medium for 48 hours.
Group 5: ZOL given first for 4 hours and cells maintained in drug-free medium for 48 hours followed by TRAIL for 24 hours.

[6] = 100 μM, 1 hour exposure, 72 hour drug-free
[7] = group 1: TRAIL 10 ng/ml 24 hours followed by ZOL 25 μM 48 hours
[8] = group 2: ZOL 25 μM for 48 hours followed by TRAIL 10 ng/ml
[9] = group 3: ZOL 25 μM and TRAIL 10 ng/ml together for 24 hours
[10] = 100 nM (highest dose tested), 72 hours

Row | Molecule | apoptosis [1] | apoptotic cell death, each drug individually [2] | apoptosis [5, 7] | apoptosis [5, 8] | apoptosis [5, 9] | also measured
1 | CC(=O)O[C@H]1C(=O)[C@@]2(C)[C@H]([C@H](OC(=O)c3ccccc3)[C@]3(O)C[C@H](OC(=O)[C@H](O)[C@@H](NC(=O)c4ccccc4)c4ccccc4)C(C)=C1C3(C)C)[C@]1(OC(C)=O)CO[C@@H]1C[C@@H]2O (relative stereo) [PAC, [2aR-[2aα, 4β, 4αβ, 6αβ, 9α(αR*, βS*),-11α,12α,12aα,12bα]]-β-(benzoylamino)-α-hydroxybenzenepropanoic acid 6,12b-bis(acetyloxy)-12-(benzoyloxy)-2α,3,4,4a,5,6,9,10,11,12,12a,12b-dodecahydro-4,11-dihydroxy-4a,8,13,13-tetramethyl-5-oxo-7,11-methano-1H-cyclodeca[3,4]benz[1,2-b]oxet-9-yl ester] | 1.25% |  |  |  |  | 
2 | CC(C)=CCC/C(C)=C/CC/C(C)=C/CC/C(C)=C/CO [GGOH, geranylgeraniol] |  |  |  |  |  | level of apoptosis with GGOH added ([2]; 100 nM letrozole 24 hours followed by 1 hour 10 μM zoledronic acid + 50 μM GGOH, apoptosis at 72 hours): reduced to the same level observed using letrozole alone; prevention of the synergistic increase in apoptotic cell death ([1]; Experiment 3: PAC followed by ZOL combined with GGOH 50 μM): 70-80%
3 | O=P(O)(O)C(O)(Cn1ccnc1)P(=O)(O)O [ZOL, 2-(imidazol-1yl)-1-hydroxyethane-1,1-diphosphonic acid] | 0.25% | do not induce significant levels of apoptotic cell death | 0.5% | 0.7% | 0.7% | peak plasma concentration [3]: 1 to 2 µM; doses causing a decrease in the number of MCF7Ca ([4]; 1 hour exposure, drug-free medium up to 72 hours): above 1 μM; apoptotic cells [2, 6]: less than 3%; necrotic cell death [2, 6]: 4.5%
4 | N#Cc1ccc(C(c2ccc(C#N)cc2)n2cncn2)cc1 [letrozole, 4-[α-(4-cyanophenyl)-1-(1,2,4-triazolyl)methyl]-benzonitrile] |  | do not induce significant levels of apoptotic cell death |  |  |  | effect on cell number at low doses ([4]; 0.1 nM (all time points), 1 nM (24 and 48 hours)): Increased number of cells; reduction in cell number compared to control ([4]; 100 nM letrozole, 72 hours): 31%; apoptosis [2, 10]: less than 3%; necrosis [2, 10]: less than 4%
5 | B1 |  |  | 1.75% | 2.7% | 1.75% | 
